According to PMC5218480 (PLoS ONE, 2017):

Tested on: MV-4-11 cells
Experiment: Gene expression microarray analysis (Affymetrix PrimeView) and GSEA
Assay type: cell-based, human
Set-up: RFU PODN (11730768_x_at) / Fold change /veh PODN (11730768_x_at) / RFU LINC00158 (11744669_a_at) / Fold change /veh LINC00158 (11744669_a_at) / RFU DUSP10 (11751237_a_at) / Fold change /veh DUSP10 (11751237_a_at) / RFU ID3 (11757404_x_at) / Fold change /veh ID3 (11757404_x_at) / RFU PLEKHG5 (11737974_s_at) / Fold change /veh PLEKHG5 (11737974_s_at) / RFU LRRC4B (11730491_at) / Fold change /veh LRRC4B (11730491_at) / RFU GIMAP4 (11747438_a_at) / Fold change /veh GIMAP4 (11747438_a_at) / RFU KRT8 (11758183_x_at) / Fold change /veh KRT8 (11758183_x_at) / RFU CNN1 (11734310_a_at) / Fold change /veh CNN1 (11734310_a_at) / RFU VPS37D (11726825_at) / Fold change /veh VPS37D (11726825_at) / RFU C10orf10 (11716522_x_at) / Fold change /veh C10orf10 (11716522_x_at) / RFU KIR2DL2 /// KIR2DL4 /// KIR2DL5A /// KIR2DL5B /// KIR2DS1 /// KIR2DS2 /// KIR2DS3 /// KIR2DS4 /// KIR3DL3 /// KIR3DL3 /// KIR3DS1 (11738374_at) / Fold change /veh KIR2DL2 /// KIR2DL4 /// KIR2DL5A /// KIR2DL5B /// KIR2DS1 /// KIR2DS2 /// KIR2DS3 /// KIR2DS4 /// KIR3DL3 /// KIR3DL3 /// KIR3DS1 (11738374_at) / RFU C1QL1 (11718748_at) / Fold change /veh C1QL1 (11718748_at) / RFU TMPRSS4 (11747572_a_at) / Fold change /veh TMPRSS4 (11747572_a_at) / RFU HAMP (11756126_x_at) / Fold change /veh HAMP (11756126_x_at) / RFU RNFT2 (11725882_a_at) / Fold change /veh RNFT2 (11725882_a_at) / RFU NR4A2 (11747474_a_at) / Fold change /veh NR4A2 (11747474_a_at) / RFU ABCC12 (11746883_a_at) / Fold change /veh ABCC12 (11746883_a_at) / RFU TMEM136 (11760407_x_at) / Fold change /veh TMEM136 (11760407_x_at) / RFU CLDN22 /// WWC2 (11732394_at) / Fold change /veh CLDN22 /// WWC2 (11732394_at) / RFU HLA-DPB1 (11760878_x_at) / Fold change /veh HLA-DPB1 (11760878_x_at) / RFU SPINT1 (11716480_a_at) / Fold change /veh SPINT1 (11716480_a_at) / RFU GAP43 (11754022_s_at) / Fold change /veh GAP43 (11754022_s_at) / RFU A4GNT (11735810_at) / Fold change /veh A4GNT (11735810_at) / RFU PRB3 (11715151_x_at) / Fold change /veh PRB3 (11715151_x_at) / RFU TUBB4B (11761932_at) / Fold change /veh TUBB4B (11761932_at) / RFU CAPN14 (11732068_a_at) / Fold change /veh CAPN14 (11732068_a_at) / RFU TMCC2 (11721928_a_at) / Fold change /veh TMCC2 (11721928_a_at) / RFU IRGQ (11745062_a_at) / Fold change /veh IRGQ (11745062_a_at) / RFU FAM174B (11720279_a_at) / Fold change /veh FAM174B (11720279_a_at) / RFU TMPRSS4 (11748680_a_at) / Fold change /veh TMPRSS4 (11748680_a_at) / RFU FAM212B (11763350_a_at) / Fold change /veh FAM212B (11763350_a_at) / RFU PLEKHG5 (11743358_a_at) / Fold change /veh PLEKHG5 (11743358_a_at) / RFU ZSCAN30 (11745921_a_at) / Fold change /veh ZSCAN30 (11745921_a_at) / RFU CMKLR1 (11741424_a_at) / Fold change /veh CMKLR1 (11741424_a_at) / RFU LOC101060620 /// MAPK8IP1 (11723275_at) / Fold change /veh LOC101060620 /// MAPK8IP1 (11723275_at) / RFU SPTSSB (11747773_x_at) / Fold change /veh SPTSSB (11747773_x_at) / RFU PRSS12 (11739890_at) / Fold change /veh PRSS12 (11739890_at) / RFU BIN1 (11741810_x_at) / Fold change /veh BIN1 (11741810_x_at) / RFU WNT11 (11732464_a_at) / Fold change /veh WNT11 (11732464_a_at) / RFU C10orf10 (11716521_a_at) / Fold change /veh C10orf10 (11716521_a_at) / RFU C5orf56 (11738089_at) / Fold change /veh C5orf56 (11738089_at) / RFU CYB561 (11721691_x_at) / Fold change /veh CYB561 (11721691_x_at) / RFU ANKRD19P (11752326_a_at) / Fold change /veh ANKRD19P (11752326_a_at) / RFU OR2T12 /// OR2T33 /// OR2T8 (11738714_s_at) / Fold change /veh OR2T12 /// OR2T33 /// OR2T8 (11738714_s_at) / RFU VCAN (11748164_a_at) / Fold change /veh VCAN (11748164_a_at) / RFU JSRP1 (11732532_at) / Fold change /veh JSRP1 (11732532_at) / RFU KRTAP10-11 (11738290_x_at) / Fold change /veh KRTAP10-11 (11738290_x_at) / RFU MYO3A (11730013_a_at) / Fold change /veh MYO3A (11730013_a_at) / RFU EBF3 (11725865_a_at) / Fold change /veh EBF3 (11725865_a_at) / RFU CAMK2N1 (11719241_x_at) / Fold change /veh CAMK2N1 (11719241_x_at) / RFU C5orf56 (11738088_a_at) / Fold change /veh C5orf56 (11738088_a_at) / RFU OLFML3 (11715873_a_at) / Fold change /veh OLFML3 (11715873_a_at) / RFU LOC100653217 /// NTM (11731650_a_at) / Fold change /veh LOC100653217 /// NTM (11731650_a_at) / RFU MAPK11 (11762145_a_at) / Fold change /veh MAPK11 (11762145_a_at) / RFU FIZ1 (11724087_x_at) / Fold change /veh FIZ1 (11724087_x_at) / RFU OASL (11726364_x_at) / Fold change /veh OASL (11726364_x_at) / RFU SOX15 (11748057_x_at) / Fold change /veh SOX15 (11748057_x_at) / RFU CD79A (11719716_a_at) / Fold change /veh CD79A (11719716_a_at) / RFU HIST1H1D (11736915_at) / Fold change /veh HIST1H1D (11736915_at) / RFU CASKIN2 (11723855_a_at) / Fold change /veh CASKIN2 (11723855_a_at) / RFU LOC730098 (11760151_x_at) / Fold change /veh LOC730098 (11760151_x_at) / RFU OR4N2 (11742367_at) / Fold change /veh OR4N2 (11742367_at) / RFU PRRT2 (11749266_a_at) / Fold change /veh PRRT2 (11749266_a_at) / RFU SNX32 (11753110_a_at) / Fold change /veh SNX32 (11753110_a_at) / RFU CDHR5 (11726645_a_at) / Fold change /veh CDHR5 (11726645_a_at) / RFU RCAN1 (11760418_a_at) / Fold change /veh RCAN1 (11760418_a_at) / RFU FAM167A (11723789_a_at) / Fold change /veh FAM167A (11723789_a_at) / RFU FAM26E (11764081_at) / Fold change /veh FAM26E (11764081_at) / RFU ISYNA1 (11749810_s_at) / Fold change /veh ISYNA1 (11749810_s_at) / RFU ACY1 (11761880_at) / Fold change /veh ACY1 (11761880_at) / RFU 11764098_at / Fold change /veh 11764098_at / RFU SAMD14 (11745864_x_at) / Fold change /veh SAMD14 (11745864_x_at) / RFU NPB (11741838_a_at) / Fold change /veh NPB (11741838_a_at) / RFU TMPRSS6 (11731388_a_at) / Fold change /veh TMPRSS6 (11731388_a_at) / RFU KRTAP10-2 (11738614_at) / Fold change /veh KRTAP10-2 (11738614_at) / RFU ARHGAP8 /// PRR5-ARHGAP8 (11727945_x_at) / Fold change /veh ARHGAP8 /// PRR5-ARHGAP8 (11727945_x_at) / RFU KRTAP5-7 /// NADSYN1 (11734609_at) / Fold change /veh KRTAP5-7 /// NADSYN1 (11734609_at) / RFU RASL12 (11751679_a_at) / Fold change /veh RASL12 (11751679_a_at) / RFU CDKN2B (11736163_a_at) / Fold change /veh CDKN2B (11736163_a_at) / RFU PRF1 (11729649_at) / Fold change /veh PRF1 (11729649_at) / RFU, ZNF638 /// ZNF638-IT1 / Fold change vs veh, ZNF638 /// ZNF638-IT1 / RFU, PANK3 / Fold change vs veh, PANK3 / RFU, SH3YL1 / Fold change vs veh, SH3YL1 / RFU, ZEB2 / Fold change vs veh, ZEB2 / RFU, NRIP1 / Fold change vs veh, NRIP1 / RFU, PTTG1IP / Fold change vs veh, PTTG1IP / RFU, CAPN2 / Fold change vs veh, CAPN2 / RFU, MED14 / Fold change vs veh, MED14 / RFU, SNORA58 / Fold change vs veh, SNORA58 / RFU, C1orf63 / Fold change vs veh, C1orf63 / RFU, LRRFIP1 / Fold change vs veh, LRRFIP1 / RFU, NDUFAF7 / Fold change vs veh, NDUFAF7 / RFU, SLC12A2 / Fold change vs veh, SLC12A2 / RFU, IBTK / Fold change vs veh, IBTK / RFU, ESF1 / Fold change vs veh, ESF1 / Fold change vs veh, TMEM50B / RFU, TAOK1 / Fold change vs veh, TAOK1 / RFU, ACBD3 / Fold change vs veh, ACBD3 / RFU, TMA16 / Fold change vs veh, TMA16 / RFU, RWDD3 / Fold change vs veh, RWDD3 / RFU, BCAT1 / Fold change vs veh, BCAT1 / RFU, EDEM3 / Fold change vs veh, EDEM3 / RFU, TMEM33 / Fold change vs veh, TMEM33 / RFU, WDR75 / Fold change vs veh, WDR75 / RFU, AHCTF1 / Fold change vs veh, AHCTF1 / RFU, TFRC / Fold change vs veh, TFRC / RFU, ZDHHC17 / Fold change vs veh, ZDHHC17 / RFU, NOM1 / Fold change vs veh, NOM1 / RFU, ARL8B / Fold change vs veh, ARL8B / RFU, ZBTB11 / Fold change vs veh, ZBTB11 / RFU, TAMM41 / Fold change vs veh, TAMM41 / RFU, KIAA1704 /// LOC100996395 / Fold change vs veh, KIAA1704 /// LOC100996395 / RFU, ING1 / Fold change vs veh, ING1 / RFU, TRMT61B / Fold change vs veh, TRMT61B / RFU, FUBP3 / Fold change vs veh, FUBP3 / RFU, TP53 / Fold change vs veh, TP53 / RFU, TNKS2 / Fold change vs veh, TNKS2 / RFU, ZFP14 / Fold change vs veh, ZFP14 / RFU, ACTR2 / Fold change vs veh, ACTR2 / RFU, PPP3R1 / Fold change vs veh, PPP3R1 / RFU, PIK3R1 / Fold change vs veh, PIK3R1 / RFU, HNRNPA1 / Fold change vs veh, HNRNPA1 / RFU, RNF170 / Fold change vs veh, RNF170 / RFU, ZNF28 / Fold change vs veh, ZNF28 / RFU, RNGTT / Fold change vs veh, RNGTT / RFU, OGT / Fold change vs veh, OGT / RFU, BRD1 / Fold change vs veh, BRD1 / RFU, MARS / Fold change vs veh, MARS / RFU, ZNF655 / Fold change vs veh, ZNF655 / RFU, FAHD1 / Fold change vs veh, FAHD1 / RFU, BDP1 / Fold change vs veh, BDP1 / RFU, LRRCC1 / Fold change vs veh, LRRCC1 / RFU, ARID1A / Fold change vs veh, ARID1A / RFU, ZNF146 / Fold change vs veh, ZNF146 / RFU, ZNF330 / Fold change vs veh, ZNF330 / RFU, GPN3 / Fold change vs veh, GPN3 / RFU, C9orf123 / Fold change vs veh, C9orf123 / RFU, N4BP2L2 / Fold change vs veh, N4BP2L2 / RFU, ARFIP1 / Fold change vs veh, ARFIP1 / RFU, FAM179B / Fold change vs veh, FAM179B / RFU, BCL10 / Fold change vs veh, BCL10 / RFU, UHRF1BP1L / Fold change vs veh, UHRF1BP1L / RFU, BET1 / Fold change vs veh, BET1 / RFU, CNOT2 / Fold change vs veh, CNOT2 / RFU, ZNF268 / Fold change vs veh, ZNF268 / Fold change vs veh, ZNF507 / RFU, DGCR2 / Fold change vs veh, DGCR2 / RFU, WDSUB1 / Fold change vs veh, WDSUB1 / Fold change vs veh, HSP90B1 /// MIR3652 / RFU, ADSS / Fold change vs veh, ADSS / RFU, GK / Fold change vs veh, GK / RFU, ZNF148 / Fold change vs veh, ZNF148 / RFU, TAF9 / Fold change vs veh, TAF9 / RFU, SLC1A5 / Fold change vs veh, SLC1A5 / RFU, SLMO2 / Fold change vs veh, SLMO2 / RFU, ABCC4 / Fold change vs veh, ABCC4 / RFU, LOC101060439 /// RAP1B / Fold change vs veh, LOC101060439 /// RAP1B / RFU, RFX7 / Fold change vs veh, RFX7 / RFU, GTPBP10 / Fold change vs veh, GTPBP10 / RFU, CNEP1R1 / Fold change vs veh, CNEP1R1 / RFU, BIVM-ERCC5 /// ERCC5 / Fold change vs veh, BIVM-ERCC5 /// ERCC5 / RFU, ILF3 / Fold change vs veh, ILF3 / RFU 11762660_at / Fold change /veh 11762660_at / RFU VCAN (11757783_s_at) / Fold change /veh VCAN (11757783_s_at) / RFU DDX43 (11728927_at) / Fold change /veh DDX43 (11728927_at) / RFU KRT8 (11758188_x_at) / Fold change /veh KRT8 (11758188_x_at) / RFU NKD1 (11759106_at) / Fold change /veh NKD1 (11759106_at) / RFU SRD5A1 (11742802_a_at) / Fold change /veh SRD5A1 (11742802_a_at) / RFU TPSAB1 /// TPSB2 (11721975_s_at) / Fold change /veh TPSAB1 /// TPSB2 (11721975_s_at) / RFU GSTM3 (11746129_a_at) / Fold change /veh GSTM3 (11746129_a_at) / RFU IL23R (11737362_x_at) / Fold change /veh IL23R (11737362_x_at) / RFU TMEM51 (11727254_a_at) / Fold change /veh TMEM51 (11727254_a_at) / RFU PIWIL2 (11732686_x_at) / Fold change /veh PIWIL2 (11732686_x_at) / RFU ORM1 (11744905_x_at) / Fold change /veh ORM1 (11744905_x_at) / RFU CCDC152 (11743942_at) / Fold change /veh CCDC152 (11743942_at) / RFU ECM1 (11717891_a_at) / Fold change /veh ECM1 (11717891_a_at) / RFU IL23R (11748794_a_at) / Fold change /veh IL23R (11748794_a_at) / RFU TNFAIP8L3 (11732012_x_at) / Fold change /veh TNFAIP8L3 (11732012_x_at) / RFU MBOAT4 (11741988_at) / Fold change /veh MBOAT4 (11741988_at) / RFU 11764193_at / Fold change /veh 11764193_at / RFU TMEM53 (11763286_at) / Fold change /veh TMEM53 (11763286_at) / RFU MAGEB2 (11727129_at) / Fold change /veh MAGEB2 (11727129_at) / RFU TMEM200A (11744735_a_at) / Fold change /veh TMEM200A (11744735_a_at) / RFU CCDC152 (11751479_a_at) / Fold change /veh CCDC152 (11751479_a_at) / RFU FAM211A (11726209_a_at) / Fold change /veh FAM211A (11726209_a_at) / RFU RGS16 (11746705_a_at) / Fold change /veh RGS16 (11746705_a_at) / RFU VCAN (11755009_s_at) / Fold change /veh VCAN (11755009_s_at) / RFU RHOB (11743442_s_at) / Fold change /veh RHOB (11743442_s_at) / RFU RGS16 (11720943_a_at) / Fold change /veh RGS16 (11720943_a_at) / RFU RGS16 (11720944_at) / Fold change /veh RGS16 (11720944_at) / RFU, VPS4B / Fold change vs veh, VPS4B / RFU, CREB1 / Fold change vs veh, CREB1 / RFU, DNAJC13 / Fold change vs veh, DNAJC13 / RFU, GNAQ / Fold change vs veh, GNAQ / RFU, CDK5R1 / Fold change vs veh, CDK5R1 / RFU, ZRANB3 / Fold change vs veh, ZRANB3 / RFU, CUL4A / Fold change vs veh, CUL4A / RFU, CCNY / Fold change vs veh, CCNY / RFU, UFL1 / Fold change vs veh, UFL1 / RFU, COG3 / Fold change vs veh, COG3 / RFU, DIAPH2 / Fold change vs veh, DIAPH2 / RFU, SKA2 / Fold change vs veh, SKA2 / RFU, AFF3 / Fold change vs veh, AFF3 / RFU, LMF1 / Fold change vs veh, LMF1 / RFU, IPO11 / Fold change vs veh, IPO11 / RFU, DFFB / Fold change vs veh, DFFB / RFU, FOXP1 / Fold change vs veh, FOXP1 / RFU, CARD8 / Fold change vs veh, CARD8 / RFU, STRN3 / Fold change vs veh, STRN3 / RFU, ADK / Fold change vs veh, ADK / RFU, RASSF2 / Fold change vs veh, RASSF2 / RFU, WIPF1 / Fold change vs veh, WIPF1 / RFU, LARP1B / Fold change vs veh, LARP1B / RFU, RASA1 / Fold change vs veh, RASA1 / RFU, RB1 / Fold change vs veh, RB1 / RFU, PPFIA1 / Fold change vs veh, PPFIA1 / RFU, MAT2A / Fold change vs veh, MAT2A / RFU, CCT5 / Fold change vs veh, CCT5 / RFU, WDR92 / Fold change vs veh, WDR92 / RFU, CUX1 / Fold change vs veh, CUX1 / RFU, TTC7A / Fold change vs veh, TTC7A / RFU, TMEM135 / Fold change vs veh, TMEM135 / RFU, DEPTOR / Fold change vs veh, DEPTOR / RFU, CPM / Fold change vs veh, CPM / RFU, DNAJB6 / Fold change vs veh, DNAJB6 / RFU, CACNA2D3 / Fold change vs veh, CACNA2D3 / RFU, DTX4 / Fold change vs veh, DTX4 / RFU, TFCP2 / Fold change vs veh, TFCP2 / RFU, GMCL1 /// GMCL1P1 / Fold change vs veh, GMCL1 /// GMCL1P1 / RFU, AEBP2 / Fold change vs veh, AEBP2 / RFU, SNHG1 /// SNORD22 /// SNORD25 /// SNORD26 /// SNORD27 /// SNORD28 /// SNORD29 /// SNORD31 / Fold change vs veh, SNHG1 /// SNORD22 /// SNORD25 /// SNORD26 /// SNORD27 /// SNORD28 /// SNORD29 /// SNORD31 / Fold change (Aza/veh), C12orf56 (ProbeSet 11735607_a_at) / Fold change (ACY-1035/veh), C12orf56 (ProbeSet 11735607_a_at) / Fold change (Aza/veh), FGFR1OP (ProbeSet 11751329_s_at) / Fold change (ACY-1035/veh), FGFR1OP (ProbeSet 11751329_s_at) / Fold change (Aza/veh), VPS36 (ProbeSet 11739960_a_at) / Fold change (ACY-1035/veh), VPS36 (ProbeSet 11739960_a_at) / RFU SYPL1 (11715823_x_at) / Fold change /veh SYPL1 (11715823_x_at) / RFU IGFBP7 (11715501_s_at) / Fold change /veh IGFBP7 (11715501_s_at) / RFU REEP3 (11722064_at) / Fold change /veh REEP3 (11722064_at) / RFU IGLL1 (11728026_x_at) / Fold change /veh IGLL1 (11728026_x_at): dose or concentration left out as unconfirmed
Details: MV-4-11 cells, 48 hours

Nc1ncn([C@@H]2O[C@H](CO)[C@@H](O)[C@H]2O)c(=O)n1 [azacitidine]
RFU KRTAP5-7 /// NADSYN1 (11734609_at): 11.87 RFU
